Experimental data: US20130045933A1, “ALOE-EMODIN DERIVATIVES AND USE THEREOF FOR THE TREATMENT OF CANCER” (RAMOT AT TEL-AVIV UNIVERSITY LTD., priority 2010, published 2013)
Read-outs that look alike come from different tables or passages of the source.

Experiments:
[1] = tested on: Molt-4 (human T cell leukemia); test: Cytotoxicity assay of compounds 11 and 12 (XTT, % cytotoxicity)
Experimental: (§1) The respective cell type at 1×10^4 cells/well was incubated for 24 hours in 96-well plates and cell viability was determined using the 2,3-bis(2-methoxy-4-nitro-5-sulphophenyl)-2H-tetrazolium-5-carboxanilide (XTT) kit (Biological Industries, Israel). […] Optical density is directly proportional to the number of living cells in culture. Cytotoxicity (%) was calculated in the following way: [(absorbance of control cells−absorbance of drug-treated cells)/absorbance of control cells]×100. Results shown are averages of 3 repeats ±SE.

[2] = tested on: HCT 116 (human colon adenocarcinoma); test: as above
Experimental: as §1

B16 (murine melanoma) = test: as above
Experimental: as §1

[3] = tested on: MCA 105 (murine fibrosarcoma); test: as above
Experimental: as §1

MOLT-4 = test: Cytotoxicity IC50 experiments, XTT kit, 24 h incubation; conditions: for IC50: read-out: IC-50 values after 24 h incubation, MOLT-4, 24 h incubation, XTT
Experimental: The cell lines used in this study were as follows: acute lymphoblastic leukemia (Molt-4), ovarian carcinoma (OVCAR3, NAR), breast adenocarcinomas (MCF7), B16 (murine melanoma), HCT 116 (human colon adenocarcinoma), and MCA 105 (murine fibrosarcoma), that were purchased from ATCC (Manassas, Va.). All cell lines except Molt-4 were grown in Dulbecco's modified Eagle's medium supplemented with 10% FBS, 1 mM L-glutamine, 100 U/ml penicillin, 100 μg/ml streptomycin. Molt-4 cells were grown in RPMI-1640 with the same supplements.
Cells (5×10^3/well) were plated into 96-well microtiter plates and were allowed to adhere (except for the leukemic cells) before treatment. After 24 hours, the plates were added with 5 μL of AEGs or AE or DOX solutions at different concentrations. The cells were incubated for 24 h. Cell viability was determined using an XTT kit protocol (Biological Industries). Optical density (OD) was read at 490 nm with a VERSAmax microplate ELISA reader (Molecular Devices, Sunnyvale, Calif., USA). IC50 values were determined as the concentrations in which the OD value of the tested compound reached 50% of the OD value of the control containing un-treated cells. All experiments were performed in triplicates and repeated three times. All cell lines were grown in Dulbecco's modified Eagle's medium (or RPMI-1640 for Molt-4 cells) supplemented with 10% FBS, 1 mM L-glutamine, 100 U/ml penicillin, 100 μg/ml streptomycin. Cells were maintained in a humidified chamber of 95% air 5% CO2 at 37° C.

[4] = cited from earlier work
MCF-7 = test: Cytotoxicity IC50 experiments, XTT kit, 24 h incubation; conditions: Homo sapiens, MCF7, 24 h, read-out: cell viability
Experimental: (§2) Aloe-emodin was purchased from Molekula.
(§3) The cells were incubated for 24 h.

NAR cells = test: as above; conditions: for IC50: DOX resistant, P-gp overexpressing; for viability at 100 µM: read-out: cell viability
Experimental: as §2, §3
Finally, AEGs 13-16 were evaluated against DOX resistant ovarian cancer NAR cells in which resistance is conferred by overexpression of P-gp efflux pumps^[36]

OVCAR-3 = test: as above; type: cell-based; conditions: for IC50: 24 h incubation, XTT, read-out: IC-50 values after 24 h incubation, OVCAR-3; for viability at 20 µM: OVCAR-3, 20 μM, 24 h, read-out: cell viability
Experimental: as §2, §3

[5] = tested on: supercoiled plasmid PBR322; test: Supercoiled plasmid DNA unwinding gel experiment (DNA intercalation); type: binding
Experimental: Eppendorf tubes containing 3 μL supercoiled plasmid PBR322 (0.167 μg/ml), 14 μL tris-HCl-di-natrium-EDTA (TE X1) and 5 μL, AE, or one of the AEGs 1-4 or doxorubicin, at different concentrations were incubated for 15 min at 37° C. The samples were then added with 2 μl of loading buffer, and loaded on a 1% agarose gel in tris-HCl-boric-acid-di-natrium-EDTA (TBE X1). Samples were on the gel run for 15 min at 50 V and an additional 225 min at 70V. The gels were then immersed in a 0.5 mg/ml solution of ethidium bromide shaken for 20 min., washed with DDW for […]. DNA was visualized by UV illumination.
The DNA intercalation property of AEGs 13-16 was studied by applying the robust supercoiled plasmid DNA unwinding gel experiments protocol.^[23,37,38] Briefly, samples containing one of the AEGs 13-16, DOX or AE were pre-incubated with PBR322DNA plasmid, loaded on a 1% agarose gel, run for 4 hours at 70 volts and stained with ethidium bromide. […] At 200 μM.

DOX resistant NAR cells = test: Fluorescent confocal microscopy study of cell permeability; type: cell-based; conditions: 5 μM, two hour incubation
Experimental: Cells (1×10^5/well) were plated into 24-well microtiter plates and incubated over coverslips for 24 hours. The cells were then added with one of the AEGs or DOX or AE at a total sample concentration of 5 μM. After 2 hours of incubation, the cells were washed three times, using PBS×1 (0.5 ml per well), and incubated with paraformaldehyde (3.7% in PBS 0.5 ml per well). After 15 min at ambient temperature, the cells were washed twice using PBS×1 0.5 ml per well. Cells were shaken at 50 rpm for 5 min after each wash. The plasma membrane of the fixated cells was stained by incubation of the samples with 300 μl of DiIC18(5)-DS ([…]) at 4° C. After 20 min, the cells were washed twice using PBS×1 0.5 ml per well. Cells were shaken at 50 rpm for 5 min after each wash. Finally, the samples were placed on a microscope slide and fixed using 10 μl of mounting. The slides were observed using an Andor Revolution Imaging System equipped with a Yokogawa CSU-X1 Spinning Disk Unit and an iXon 897 back-illuminated EMCCD camera, and mounted on a custom made Olympus IX-Upright microscope at Ex/Em=488/525 nm for DOX and AE glycoside I and Ex/Em=640/685 nm for DiIC18 (5)-DS.
A possible explanation for the potency of the synthetic AEGs against. DOX resistant cells was provided using fluorescent confocal microscopy (FIG. 11). […]

MCF-7 cells = test: Light microscopy study of treated cells; type: cell-based; conditions: MCF-7, 20 μM, 24 hours, x400
Experimental: FIG. 9: Light microscopy (x400) pictures of MCF-7 cells: Cell cultures were incubated for 24 hours. (a) Untreated control cells (b) AE 20 μM (c), Dox 20 μM, (d) AEG 13 20 μM.
Cells micrographs were obtained using a light microscope (Olympus IX50-S8F2 inverted phase microscope) at x400 magnification.

[6] = Molt-4, 24 hours of incubation, E-1 at the highest concentration
[7] = HCT116, 24 hours of incubation, E-1 at the highest concentration
[8] = B16, 24 hours of incubation, E-1 at the highest concentration
[9] = MCA 105, 24 hours of incubation, E-1 at the highest concentration
[10] = 24 h, read-out: IC-50 values after 24 h incubation, NAR, 24 h incubation, XTT
[11] = read-out: IC-50 values after 24 h incubation, NAR, 24 h incubation, XTT

Which cytotoxicity ([1]; Molt-4, 100 μM, 4 hours of incubation) does the source give for `NC1CC(OCc2cc(O)c3c(c2)C(=O)c2cccc(O)c2C3=O)OCC1O` [E-1, Aloe-Emodin connected through C-7 to alpha 2-deoxy-3-deoxy-3-amino-L-xylopyranose] here?
The cytotoxicity was “about 90%”.

What about the “cytotoxicity, general outcome (FIG. 4A)” value [1, 6] of the same molecule?
The value was “much more effective than Alo”.

What about the “cytotoxicity, general outcome (FIG. 4C)” value [2, 7] of the same molecule?
Its value is “much more effective than Alo”.

What about the “cytotoxicity, general outcome (FIG. 4B)” value (B16 (murine melanoma); [8]) of the same molecule?
The value was “much more effective than Alo”.

And the “cytotoxicity, general outcome (FIG. 4D)” value [3, 9]?
The value was “much more effective than Alo”.

Which results are given for `O=C1c2cccc(O)c2C(=O)c2c(O)cc(CO)cc21` [AE, Aloe-emodin]?
toxicities (cytotoxicity) ([1]; human): about 20%; cell viability (MOLT-4; MOLT-4, 20 μM, 24 h): 100%; IC50 (MOLT-4): > 20 µM; solubility in water and in physiological solutions [4]: hardly soluble; viability at 20 µM (MCF-7): 77%; IC50 (NAR cells; [10]): > 100 µM; viability at 100 µM (NAR cells; 24 h): 78%; IC50 (OVCAR-3; Homo sapiens, OVCAR-3, 24 h): > 20 µM

With `NC1CC(OCc2cc(O)c3c(c2)C(=O)c2cccc(O)c2C3=O)OCC1O` [E-2, Aloe-Emodin connected through C-7 to beta 2-deoxy-3-deoxy-3-amino-L-xylopyranose] as the molecule, how does the “cytotoxicity, general outcome (FIG. 4A)” value [1, 6] read?
Its value is “much weaker effect”.

What about the “toxicities (cytotoxicity)” value ([1]; Molt-4, up to 8 hours of incubation) of the same molecule?
The value was “about 20%”.

What about the “cytotoxicity, general outcome (FIG. 4C)” value [2, 7] of the same molecule?
Its value is “much weaker effect”.

And the “cytotoxicity, general outcome (FIG. 4B)” value (B16 (murine melanoma); [8])?
Its value is “much weaker effect”.

What about the “cytotoxicity, general outcome (FIG. 4D)” value [3, 9] of the same molecule?
Its value is “much weaker effect”.

For `CC1O[C@@H](OCc2cc(O)c3c(c2)C(=O)c2cccc(O)c2C3=O)CC(N)[C@H]1O` (some centres unmarked) [AEG 15], which IC50 (MOLT-4) is on record?
The IC50 was 5.4 ± 0.4 µM.

What about the IC50 (NAR cells; [11]) of the same molecule?
Its IC50 is 18 ± 1.3 µM.

What about the IC50 (OVCAR-3) of the same molecule?
Its IC50 is 15.7 ± 0.8 µM.

For `CC1O[C@H](OCc2cc(O)c3c(c2)C(=O)c2cccc(O)c2C3=O)CC(N)[C@H]1O` (some centres unmarked) [AEG 14], which IC50 (MOLT-4) is on record?
Its IC50 is 7.6 ± 1.6 µM.

And the DNA shift effect ([5]; 200 μM)?
Its DNA shift effect is “weak effect”.

And the viability at 100 µM (NAR cells; 24 h)?
The viability at 100 µM was 65%.

What about the IC50 (NAR cells; [11]) of the same molecule?
Its IC50 is over 100 µM.

And the IC50 (OVCAR-3)?
The IC50 was 6.4 ± 0.2 µM.

Which results are given for `CC1O[C@@H](OCc2cc(O)c3c(c2)C(=O)c2cccc(O)c2C3=O)CC(N)[C@H]1O` (some centres unmarked) [AEG 13]?
cellular accumulation (cell permeability) (DOX resistant NAR cells): intracellular accumulation; IC50 (MOLT-4): 5.8 ± 1.3 µM; DNA shift effect ([5]; 200 μM): most significant effect; improvement in cytotoxic potency compared to DOX and AE (NAR cells): at least two orders of magnitude; IC50 (NAR cells; [11]): 8.6 ± 0.6 µM; IC50 (OVCAR-3): 5.2 ± 0.1 µM; cell numbers and cell morphology by light microscopy (MCF-7 cells): a very small number of highly damaged cells was observed

Which results are given for `COc1cccc2c1C(=O)c1c(O)c3c(c(O)c1C2=O)C[C@@](O)(C(=O)CO)C[C@@H]3O[C@H]1C[C@H](N)[C@H](O)[C@H](C)O1` [DOX, doxorubicin, reference compound]?
cellular accumulation (cell permeability) (DOX resistant NAR cells): accumulated mainly in the plasma membrane; cytotoxicity, general outcome (FIG. 4A) [1]: much more effective than the other compounds; toxicities (cytotoxicity) ([1]; human): about 20%; cytotoxicity, general outcome (FIG. 4C) [2]: much more effective than the other compounds; cytotoxicity, general outcome (FIG. 4B) (B16 (murine melanoma)): much more effective than the other compounds; cytotoxicity, general outcome (FIG. 4D) [3]: much more effective than the other compounds; IC50 (MOLT-4): 0.2 ± 0.07 µM; DNA shift effect ([5]; 20 μM): still significant; DNA shift effect ([5]; 200 μM): intense effect; viability at 20 µM (MCF-7): 83%; IC50 (NAR cells; [10]): > 100 µM; cell viability (NAR cells; NAR, 100 μM, 24 h): not affected at all; IC50 (OVCAR-3; Homo sapiens, OVCAR-3, 24 h): > 20 µM; viability at 20 µM (OVCAR-3; Homo sapiens): 61%; cell numbers and cell morphology by light microscopy (MCF-7 cells): became more spherical in shape and smaller in size

For `CC1O[C@H](OCc2cc(O)c3c(c2)C(=O)c2cccc(O)c2C3=O)CC(N)[C@H]1O` (some centres unmarked) [AEG 16], which IC50 (MOLT-4) is on record?
Its IC50 is 12.8 ± 0.7 µM.

What about the viability at 20 µM (MCF-7) of the same molecule?
The viability at 20 µM was 83%.

And the IC50 (NAR cells; [11])?
The IC50 was 28.3 ± 2.3 µM.

And the IC50 (OVCAR-3)?
Its IC50 is over 20 µM.

And the viability at 20 µM (OVCAR-3; Homo sapiens)?
Its viability at 20 µM is 60%.
